# Results published in paper PMC6628235 (Marine Drugs, 2019).
# Assays:
# Assay type in all cases: biochemical
# [1] = biological target: acetylcholinesterase (AChE) (Electrophorus electricus, UniProt O42275); test: modified Ellman's microplate assay ([…] inhibition at […])
# [2] = biological target: T1, butyrylcholinesterase (BuChE) (Equus caballus, UniProt P81908); test: modified Ellman's assay, positive control, % inhibition at […] (IC50 not determined)
# T1 construct: gene BCHE
# [3] = biological target: T1, butyrylcholinesterase (BuChE); test: modified Ellman's assay, % inhibition at […] (IC50 not determined)
# T1 sequence (P81908 whole entry): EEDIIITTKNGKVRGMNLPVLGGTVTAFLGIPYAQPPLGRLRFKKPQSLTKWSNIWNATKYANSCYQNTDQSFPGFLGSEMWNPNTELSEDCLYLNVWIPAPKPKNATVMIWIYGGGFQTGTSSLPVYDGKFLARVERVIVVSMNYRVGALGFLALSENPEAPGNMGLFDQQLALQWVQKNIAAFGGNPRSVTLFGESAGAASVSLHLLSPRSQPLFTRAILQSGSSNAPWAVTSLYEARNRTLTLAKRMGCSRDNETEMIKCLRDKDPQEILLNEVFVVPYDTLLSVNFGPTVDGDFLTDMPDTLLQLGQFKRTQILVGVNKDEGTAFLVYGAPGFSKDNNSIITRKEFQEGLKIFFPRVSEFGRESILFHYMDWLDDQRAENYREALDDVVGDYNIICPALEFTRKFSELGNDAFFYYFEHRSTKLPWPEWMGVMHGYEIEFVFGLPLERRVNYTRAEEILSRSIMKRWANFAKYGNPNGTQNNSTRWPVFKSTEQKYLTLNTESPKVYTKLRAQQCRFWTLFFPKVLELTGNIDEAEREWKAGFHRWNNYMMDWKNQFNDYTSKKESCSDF
# Sequence of acetylcholinesterase (AChE) (O42275 24-633): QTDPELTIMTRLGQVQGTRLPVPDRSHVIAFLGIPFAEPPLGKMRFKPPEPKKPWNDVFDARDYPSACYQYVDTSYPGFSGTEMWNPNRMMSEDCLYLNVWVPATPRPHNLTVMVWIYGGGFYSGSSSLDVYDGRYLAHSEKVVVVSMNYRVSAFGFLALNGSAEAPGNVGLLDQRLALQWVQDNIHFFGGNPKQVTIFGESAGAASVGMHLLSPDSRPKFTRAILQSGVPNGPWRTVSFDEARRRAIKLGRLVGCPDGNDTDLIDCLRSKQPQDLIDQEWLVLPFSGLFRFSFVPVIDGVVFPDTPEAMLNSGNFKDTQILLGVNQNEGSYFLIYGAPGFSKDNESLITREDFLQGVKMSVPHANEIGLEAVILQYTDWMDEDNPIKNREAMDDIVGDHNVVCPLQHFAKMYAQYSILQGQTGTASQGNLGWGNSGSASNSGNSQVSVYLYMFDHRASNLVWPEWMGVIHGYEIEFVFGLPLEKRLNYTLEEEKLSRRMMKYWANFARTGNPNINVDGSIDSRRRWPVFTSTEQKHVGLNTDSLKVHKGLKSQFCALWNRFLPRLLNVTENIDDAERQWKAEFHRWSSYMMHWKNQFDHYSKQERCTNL
smiles,measurement,setting,value
"Cc1cc2nc3[nH]c(=O)[nH]c(=O)c3nc2cc1C [compound 3, lumichrome]",IC50,[1],12.24 ± 0.12 µM
COc1ccc2c3c1O[C@H]1C[C@@H](O)C=C[C@@]31CCN(C)C2 [galantamine],% inhibition at 6.25 μM,[2],10.34 ± 0.21
"CC1=C[C@H](O)[C@]2(CC1=O)C[C@H](O)C(C)(C)O2 [compound 1, (3S, 5R, 10S)-3,10-dihydroxy-2,2,8-trimethyl-1-oxospiro[4.5]dec-8-en-7-one]",inhibition at 6.25 µM,[3],30.71 ± 0.21%
